The source of these data is patent US20250122167A1, “Pyrazine Compounds Useful in the Treatment of Parasitic Protozoal Infection” (priority 2021, published 2025).

Each structure is given as a SMILES string. Structures can show the parent of a compound that is named as a salt. Where two headings read alike, the source gives them in different places.

The term solubility denotes the dissolved amount per volume that the medium holds. Read a high solubility as a readily soluble substance. As usually defined, the Solubility is the dissolved amount per volume that the medium holds. Low readings indicate a poorly soluble substance, high ones a readily soluble substance.

Data set [1] concerns P. falciparum 3D7A strain parasitized red blood cells. As to the kind of experiment: P. falciparum growth inhibition assay Sybr Green. Format: cell-based, Plasmodium falciparum. The note with it: for IC50: Plasmodium falciparum, Erythrocyte, 48 h. The protocol: P. falciparum Growth Inhibition Assay Sybr Green
The parasite growth is determined measuring the staining of the DNA's minor groove with SYBR Green I, which labels the remaining parasites. The DNA-SYBR complex absorbs light reaching the peak at λ=498 nm and emits at a peak of λ=522 nm.
Briefly, a culture of 3D7A strain parasitized red blood cells (RBC) (0.5% parasitemia and 2% haematocrit in RPMI-1640 supplemented with 25 ml albumax and […] hypoxanthine for 500 ml) is exposed to 3-fold serial dilutions of the compound. Plates are incubated 48 h at 37° C., 5% CO2, 5% O2, 90% N2. At 48 h of incubation, SyberGreen I solution (2×) is added and plates are incubated for 30 minutes at 37° C., 5% CO2, 5% O2, 90% N2 and then plates are frozen at −80° C. Then plates are read in the EnVision (EnVision Multilabel Plate Reader, Perkin Elmer). Data (pIC50) are generated by ActivityBase (IDBS) and graphs are checked by Spotfire.
Inhibition of parasite growth in whole cell assay (infected human eritrocites) in vitro is directly linked to reduction of parasitemia in vivo.

A short description of the next data set: physchem. Conditions: Fasted State Simulated Intestinal Fluid (FaSSIF), pH 6.5, fassif, thermodynamic from solid.
The nature of data set [2]: Kinetic aqueous solubility in PBS pH 7.4 (HPLC-CAD). Format: physicochemical. The note with it: PBS pH7.4, room temperature, 1 hour equilibration; for solubility at 1 h / solubility kinetic at 1 h: phosphate buffered saline (PBS), pH 7.4, aqueous buffer, kinetic from dmso stock; for solubility kinetic at 1 h: read-out: Concentration; for Solubility: from DMSO stock. The protocol: The kinetic aqueous solubility was measured at room temperature after 1 hour equilibration in aqueous phosphate buffered saline (PBS) at pH7.4, and is determined by measuring the concentration of solute in solution after precipitation from DMSO stock solution.
The sample plate was left to equilibrate for 1 hour at room temperature.
Vacuum filtration was applied to filter the solution into a 96-well collection plate.
The filtrate was analysed by HPLC-CAD (Charged Aerosol Detector).
Calibration standards of Ketoconazole and Primidone were prepared by serial dilutions in DMSO at concentrations ranging from 0.016 to 4.5 mg/ml to produce the calibration curve.

Data set [3] can be described thus: Equilibrium solubility in Fasted State Simulated Intestinal Fluid (FaSSIF). The note with it: FaSSIF pH 6.5, room temperature, 4 hour equilibration, dynamic range 1-1000 μg/ml.
Data set [4] deals with Plasmodium falciparum Pf3D7^0087/N9. As to the kind of experiment: P. falciparum in vivo efficacy assay (humanised mouse model). Conditions: NODscidIL2Rγ mice engrafted with human erythrocytes; for ED90 mean: parasitemia by microscopy and flow cytometry; for AUCED90 mean: blood exposure (AUC0-23h after first dose) at ED90. The protocol: Antimalarial in vivo efficacy was determined using the P. falciparum mouse model following the procedure described in: Jimenez-Díaz, M. B., Mulet, T., Viera, S., Gómez, V., Garuti, H., Ibañez, J., Alvarez-Doval, A., Shlutz, D. L., Martinez, A., Improved Murine Model Of Malaria Using Plasmodium falciparum (Competent Strains and Non-Myelodepleted NOD-scid IL2R_null Mice Engrafted with Human Erythrocytes) Antimicrob. Agents Chemother 2009, 53 (10), 4533-4536.
The goal of the study was to assess the therapeutic efficacy of the examples against Plasmodium falciparum Pf3D7^0087/N9 growing in peripheral blood of NODscidIL2Ry^0087/N9 mice engrafted with human erythrocytes. The levels of the examples were measured in serial peripheral blood samples obtained from each mouse of the efficacy experiment during the first 23 hrs after the first dose. The area under the curve of levels of compound is used to estimate the exposure in blood during the first 23 hours after the first administration (AUC0-23h).
The effect of Examples 1, 2, 5, 7, 8 and 10 on P. Falciparum Pf3D7^0087/N9 was assessed by microscopy and flow cytometry.

[5] abbreviates: average, 48 h incubation, SYBR Green I readout, ditrifluoroacetic acid salt.
Setting [6] is: range of values, 48 h incubation, SYBR Green I readout, ditrifluoroacetic acid salt.
Setting [7] is: read-out: Average value pIC50, average (converted), 48 h incubation, SYBR Green I readout.
[8] abbreviates: read-out: Pf3D7 pIC50, range of values (converted), 48 h incubation, SYBR Green I readout.
[9] abbreviates: average, 48 h incubation, SYBR Green I readout, dihydrochloride.
Setting [10] is: range of values, 48 h incubation, SYBR Green I readout, dihydrochloride.
Where [11] appears, read: average, 48 h incubation, SYBR Green I readout, read-out: Average value pIC50 (converted).
The mark [12] stands for this setting: range of values, 48 h incubation, SYBR Green I readout, read-out: Pf3D7 pIC50 (converted).

Turning to `N[C@@H]1CCCC[C@@H]1NC(=O)c1ccc(-c2cncc(-c3cncc(F)c3)n2)cc1` [Example 9, N-((1S,2R)-2-aminocyclohexyl)-4-(6-(5-fluoropyridin-3-yl)pyrazin-2-yl)benzamide, ditrifluoroacetic acid salt], in data set [1] (setting [5]), the “Average value pIC50” value came to 8.60. Besides, the “Pf3D7 pIC50” value in data set [1] (setting [6]) is 8.53-8.60. For the same molecule, the solubility at 4 h in the data set “physchem” was 789 µg/mL. For the same molecule, in data set [2], the solubility at 1 h stood at 115 µg/mL and the solubility kinetic at 1 h stood at 293 mM.

Take `NC1(CNC(=O)c2ccc(-c3cncc(-c4cncc(F)c4)n3)cc2)CC1` [Example 5, N-((1-aminocyclopropyl)methyl)-4-(6-(5-fluoropyridin-3-yl)pyrazin-2-yl)benzamide, dihydrochloride]: in data set [1] (setting [7]), the IC50 was 3.16 nM. Also, the IC50 in data set [1] (setting [8]) is 2.51 to 4.57 nM. In data set [3] (dihydrochloride), this molecule gave a FaSSIF solubility of 380 µg/mL. Also, in data set [2], the solubility at 1 h is at least 114 µg/mL and the solubility kinetic at 1 h is at least 313 mM. In data set [4], this molecule came in with an ED90 mean of 1.04 mg/kg and an AUCED90 mean of 0.13 mg · h · mL^−1 · day^−1.

Consider `N[C@@H]1CCCC[C@@H]1NC(=O)c1ccc(-c2cncc(-c3cncc(F)c3)n2)cc1` [Example 8, N-((1S,2R)-2-aminocyclohexyl)-4-(6-(5-fluoropyridin-3-yl)pyrazin-2-yl)benzamide, dihydrochloride], for which the “Average value pIC50” value in data set [1] (setting [9]) was found to be 8.40. In addition, the “Pf3D7 pIC50” value in data set [1] (setting [10]) is 8.33-8.6. The same molecule showed a FaSSIF solubility in data set [3] (dihydrochloride) above 1000 µg/mL. Moreover, in data set [2], the solubility at 1 h was at least 106 µg/mL and the solubility kinetic at 1 h was at least 271 mM. In data set [4] (dihydrochloride), this molecule had an ED90 mean of 1.59 mg/kg and an AUCED90 mean of 0.26 mg · h · mL^−1 · day^−1.

For the molecule `CC(C)(N)CNC(=O)c1ccc(-c2cncc(-c3cncc(F)c3)n2)cc1` [Example 7, N-(2-amino-2-methylpropyl)-4-(6-(5-fluoropyridin-3-yl)pyrazin-2-yl)benzamide, ditrifluoroacetic acid salt], the IC50 in data set [1] (setting [7]) was 7.94 nM. Moreover, the IC50 in data set [1] (setting [8]) was 7.08 to 8.91 nM. The solubility at 4 h in the data set “physchem” is 742 µg/mL. In data set [2], the solubility at 1 h was at least 84.4 µg/mL and the solubility kinetic at 1 h was at least 231 mM. Besides, in data set [4], the ED90 mean came to 1.74 mg/kg and the AUCED90 mean came out at 0.05 mg · h · mL^−1 · day^−1.

As to `NC1(CNC(=O)c2ccc(-c3cncc(-c4cncc(F)c4)n3)cc2)CC1` [Example 6, N-((1-aminocyclopropyl)methyl)-4-(6-(5-fluoropyridin-3-yl)pyrazin-2-yl)benzamide, ditrifluoroacetic acid salt], in “physchem”, the solubility at 4 h was 339 µg/mL. In data set [2], the solubility at 1 h was at least 200 µg/mL and the solubility kinetic at 1 h was at least 549 mM.

In the case of `NC1(CNC(=O)c2ccc(-c3cncc(-c4cncc(F)c4)n3)cc2)CCC1` [Example 4, N-((1-aminocyclobutyl)methyl)-4-(6-(5-fluoropyridin-3-yl)pyrazin-2-yl)benzamide], the “Average value pIC50” value in data set [1] (average, 48 h incubation, SYBR Green I readout) was determined as 8.60. In addition, in data set [1] (range of values, 48 h incubation, SYBR Green I readout), the “Pf3D7 pIC50” value is 8.54-8.76. The same molecule showed a FaSSIF solubility in data set [3] above 1000 µg/mL. The Solubility in data set [2] is at least 129.8 µg/mL.

As for `NC1(CNC(=O)c2ccc(-c3cncc(-c4cncc(F)c4)n3)cc2)CCC1` [Example 1, N-((1-aminocyclobutyl)methyl)-4-(6-(5-fluoropyridin-3-yl)pyrazin-2-yl)benzamide, ditrifluoroacetic acid salt], in data set [1] (setting [5]), the “Average value pIC50” value is given as 8.50. Moreover, the “Pf3D7 pIC50” value in data set [1] (setting [6]) is given as 8.48-8.60. The FaSSIF solubility in data set [3] (ditrifluoroacetic acid salt) is 429 µg/mL. In data set [2], the solubility at 1 h was at least 124 µg/mL and the solubility kinetic at 1 h was at least 329 mM. Also, in data set [4] (ditrifluoroacetic acid salt), the ED90 mean is 1.28 mg/kg and the AUCED90 mean is 0.067 mg · h · mL^−1 · day^−1.

For `N[C@@H]1CCCC[C@@H]1NC(=O)c1ccc(-c2cncc(-c3cncc(F)c3)n2)cc1` [Example 10, N-((1S,2R)-2-aminocyclohexyl)-4-(6-(5-fluoropyridin-3-yl)pyrazin-2-yl)benzamide], the values for the IC50 in data set [1] (setting [11]) and in data set [1] (setting [12]) were 3.16 nM and 3.09 to 3.8 nM, respectively. In addition, the FaSSIF solubility in data set [3] was 941 µg/mL. In addition, the Solubility in data set [2] is at least 136.2 µg/mL. Further, the ED90 mean in data set [4] was 0.95 mg/kg. Besides, the AUCED90 mean in data set [4] is 0.20 mg · h · mL^−1 · day^−1.

For the molecule `NC1(CNC(=O)c2ccc(-c3cncc(-c4cncc(F)c4)n3)cc2)CCC1` [Example 2, N-((1-aminocyclobutyl)methyl)-4-(6-(5-fluoropyridin-3-yl)pyrazin-2-yl)benzamide, dihydrochloride], the “Average value pIC50” value in data set [1] (setting [9]) stood at 8.50. Moreover, the “Pf3D7 pIC50” value in data set [1] (setting [10]) is 8.47-8.63. In the data set “physchem”, this molecule registered a solubility at 4 h of 398 µg/mL. Moreover, in data set [2], the solubility at 1 h is at least 126 µg/mL and the solubility kinetic at 1 h was at least 335 mM. In data set [4] (dihydrochloride), this molecule registered an ED90 mean of 1.14 mg/kg and an AUCED90 mean of 0.121 mg · h · mL^−1 · day^−1.

In the case of `NC1(CNC(=O)c2ccc(-c3cncc(-c4cncc(F)c4)n3)cc2)CCC1` [Example 3, N-((1-aminocyclobutyl)methyl)-4-(6-(5-fluoropyridin-3-yl)pyrazin-2-yl)benzamide, sulfuric acid salt], the IC50 in data set [1] (setting [11]) is 3.16 nM; in data set [1] (setting [12]), 2.51 to 5.01 nM. This molecule also gave a Solubility in data set [2] of at least 94.7 µg/mL.
